# Measurements: patent publication US20100216755A1, “ANTI-TUMOR AGENT” (AJINOMOTO CO. INC, priority 2001, published 2010)
# Where a name gives a salt, the structure may show the parent alone. Marks after values point to notes of the source that are not given here.
# Assays:
# [1] = system: Malignant fibrous histiocytoma MT-9; assay: Anti-tumor effect, MT-9/F344 system (tumor volume, I.R.); format: in vivo, rat (F344); conditions: for I.R.(%): 3 times every 3 days
# Procedure: • Rat tumor cell line (transplant rat strain); • Malignant fibrous histiocytoma MT-9 (F344, male)
# MT-9 was obtained as in-vitro cultured cells, which were cultured in RPMI1640 medium containing 10% FBS. 10^7 or more of the MT-9 cells were subcutaneously transplanted into the back of rats. After tumor formation, tumor slices (about 100 mg) were inoculated subcutaneously into rats using cannula for serial passage.
# The MT-9/F344 system: Tumors serially passed by the subcutaneous transplantation were extirpated. After binding tissues and necrosis portions in the tumors had been removed, tumor tissues were minced with scissors and made pasty. About 50-100 mg of the tumor tissues were subcutaneously transplanted into the backs of F344 rats (day 0).
# After the tumors were multiplied to a measurable quantity (about 1-2 weeks later), the tumor size (tumor volume) and body weight were measured and divided into tumor size-and body weight-matched groups.
# The tumor sizes (tumor volumes) and body weights were measured every day from the next day to about the third day following completion of administration. Incidentally, the tumor volume was calculated according to the following formula:
# Tumor volume (mm^3)=[…].
# T/C(%)=[(tumor volume for the medicine administered group)÷(tumor volume for the control group)]×100
# The influence of Dexamethasone on the pharmaceutical effect of AC-7700 was investigated using F344 rats, subcutaneously transplanted MT-9. AC-7700 was administered at a dosage of 10 mg/kg, and 1 mg/kg of Dexamethasone was administered on the day before the AC-7700 administration. Both the medical agents were 3 times administered every 3 days.
# [2] = Maximum tolerable dose in CDF1 mice; format: in vivo; conditions: AC-7700 s.c. 3 times every 3 days, CDF1 mice (female)
smiles,measurement,setting,value
"COc1ccc(/C=C\c2cc(OC)c(OC)c(OC)c2)cc1NC(=O)[C@@H](N)CO [AC-7700, (Z)—N-[2-methoxy-5-[2-(3,4,5-trimethoxyphenyl)vinyl]phenyl]-L-serinamide hydrochloride]",tumor growth,"[1]; AC-7700 10 mg/kg as single agent, F344 rats, s.c. MT-9",significantly inhibited tumor growth
same,tumor growth,"[1]; AC-7700 10 mg/kg in combination with Dexamethasone 1 mg/kg, no significant difference from AC-7700 alone (Scheffe's F test)",inhibited tumor growth in the same manner
same,I.R.(%),"[1]; AC-7700 10 mg/kg/day alone (DEX 0), F344 rats, s.c. MT-9",84** %
same,I.R.(%),"[1]; AC-7700 10 mg/kg/day combined with DEX 1 mg/kg/day given the day before, F344 rats, s.c. MT-9",72** %
same,maximum tolerable dose of AC-7700,[2]; with Dexamethasone 5 mg/kg/day i.v. on the day before and the day of AC-7700,more than 90 mg/kg/day
same,maximum tolerable dose of AC-7700,[2]; without Dexamethasone,43.6 mg/kg/day
